The source of these data is US11820766B2, “Monoacylglycerol lipase modulators” (Janssen Pharmaceutica NV, priority 2018, dated 2023).

The test has as its target T1, human MGL from HeLa cells (Homo sapiens, UniProt Q99685).
T1 construct: combining endogenously expressed MGL from HeLa cells with test compounds; endogenous in cells; host or cells: HeLa cells / cell homogenates
T1 sequence (Q99685 1-303): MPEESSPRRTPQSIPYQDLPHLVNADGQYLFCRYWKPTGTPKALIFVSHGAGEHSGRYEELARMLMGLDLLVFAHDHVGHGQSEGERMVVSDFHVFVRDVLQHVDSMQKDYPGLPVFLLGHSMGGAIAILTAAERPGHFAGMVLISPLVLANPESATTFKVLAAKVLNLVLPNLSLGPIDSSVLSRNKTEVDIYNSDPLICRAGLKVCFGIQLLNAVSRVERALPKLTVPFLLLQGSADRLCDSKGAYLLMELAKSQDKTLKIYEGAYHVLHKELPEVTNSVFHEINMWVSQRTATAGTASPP
The experiment in a line: In vitro MGL activity assay: [glycerol-1,3-3H]-oleyl glycerol cleavage by MGL from HeLa cells. The class given is biochemical. Conditions: 300 nM [Glycerol-1,3-3H]-oleyl glycerol, one hour incubation. An excerpt:
MGL is the predominant hydrolase in HeLa cells/cell homogenates.
On to `Cn1nc2c(c1-c1ccccc1)CCN(C(=O)c1cc3[nH]ccc3s1)C2` [Example 31, (2-Methyl-3-phenyl-2,4,5,7-tetrahydro-6H-pyrazolo[3,4-c]pyridin-6-yl)(4H-thieno[3,2-b]pyrrol-2-yl)methanone], for which the IC50 was 1230 nM.
In turn, `Cc1nc2sccn2c1C(=O)N1CCc2c(nn(C)c2-c2ccccc2)C1` [Example 32, (2-Methyl-3-phenyl-2,4,5,7-tetrahydro-6H-pyrazolo[3,4-c]pyridin-6-yl)(6-methylimidazo[2,1-b]thiazol-5-yl)methanone] returned a half-inhibitory concentration (IC50) of 1090 nM.
As to `Cn1nc2c(c1-c1ccccc1)CCN(C(=O)c1cccc3ccoc13)C2` [Example 33, Benzofuran-7-yl(2-methyl-3-phenyl-2,4,5,7-tetrahydro-6H-pyrazolo[3,4-c]pyridin-6-yl)methanone], the IC50 came out at 89.9 nM.
With `Cn1nc2c(c1-c1ccccc1)CCN(C(=O)c1cccc3occc13)C2` [Example 34, Benzofuran-4-yl(2-methyl-3-phenyl-2,4,5,7-tetrahydro-6H-pyrazolo[3,4-c]pyridin-6-yl)methanone], half-maximal inhibition (IC50) required 300 nM.
`Cn1nc2c(c1-c1ccccc1)CCN(C(=O)c1ccc3occc3c1)C2` [Example 35, Benzofuran-5-yl(2-methyl-3-phenyl-2,4,5,7-tetrahydro-6H-pyrazolo[3,4-c]pyridin-6-yl)methanone] registered an IC50 of 482 nM.
The compound `Cn1nc2c(c1-c1ccccc1)CCN(C(=O)c1coc3ccccc13)C2` [Example 36, Benzofuran-3-yl(2-methyl-3-phenyl-2,4,5,7-tetrahydro-6H-pyrazolo[3,4-c]pyridin-6-yl)methanone] displayed an IC50 of 750 nM.
With `Cn1nc2c(c1-c1ccccc1)CCN(C(=O)c1cccc3ccsc13)C2` [Example 37, Benzo[b]thiophen-7-yl(2-methyl-3-phenyl-2,4,5,7-tetrahydro-6H-pyrazolo[3,4-c]pyridin-6-yl)methanone] the figure was 47.8 nM.
`Cn1nc2c(c1-c1ccccc1)CCN(C(=O)c1cccc3sccc13)C2` [Example 38, Benzo[b]thiophen-4-yl(2-methyl-3-phenyl-2,4,5,7-tetrahydro-6H-pyrazolo[3,4-c]pyridin-6-yl)methanone] registered an IC50 of 68 nM.
The figure for `Cn1nc2c(c1-c1ccccc1)CCN(C(=O)c1ccc3sccc3c1)C2` [Example 39, Benzo[b]thiophen-5-yl(2-methyl-3-phenyl-2,4,5,7-tetrahydro-6H-pyrazolo[3,4-c]pyridin-6-yl)methanone] is 136 nM; for `Cn1nc2c(c1-c1ccccc1)CCN(C(=O)c1csc3ccccc13)C2` [Example 40, Benzo[b]thiophen-3-yl(2-methyl-3-phenyl-2,4,5,7-tetrahydro-6H-pyrazolo[3,4-c]pyridin-6-yl)methanone] it is 141 nM.
The figure for `Cn1nc2c(c1-c1ccccc1)CCN(C(=O)c1sc3ccccc3c1Cl)C2` [Example 41, (3-Chlorobenzo[b]thiophen-2-yl)(2-methyl-3-phenyl-2,4,5,7-tetrahydro-6H-pyrazolo[3,4-c]pyridin-6-yl)methanone] is 64.6 nM; for `Cn1nc2c(c1-c1ccccc1)CCN(C(=O)c1cccc3[nH]ccc13)C2` [Example 42, (1H-Indol-4-yl)(2-methyl-3-phenyl-2,4,5,7-tetrahydro-6H-pyrazolo[3,4-c]pyridin-6-yl)methanone] it is 23.6 nM.
`Cn1nc2c(c1-c1ccccc1)CCN(C(=O)c1ccc3[nH]ccc3c1)C2` [Example 43, (1H-Indol-5-yl)(2-methyl-3-phenyl-2,4,5,7-tetrahydro-6H-pyrazolo[3,4-c]pyridin-6-yl)methanone] came in with an IC50 of 64.7 nM.
Compound `Cn1nc2c(c1-c1ccccc1)CCN(C(=O)c1c[nH]c3ccccc13)C2` [Example 44, (1H-Indol-3-yl)(2-methyl-3-phenyl-2,4,5,7-tetrahydro-6H-pyrazolo[3,4-c]pyridin-6-yl)methanone] had an IC50 of 319 nM.
`Cn1nc2c(c1-c1ccccc1)CCN(C(=O)c1cccc3cc[nH]c13)C2` [Example 45, (1H-Indol-7-yl)(2-methyl-3-phenyl-2,4,5,7-tetrahydro-6H-pyrazolo[3,4-c]pyridin-6-yl)methanone] displayed an IC50 of 1460 nM.
With `Cn1nc2c(c1-c1ccccc1)CCN(C(=O)c1ccc3cc[nH]c3c1)C2` [Example 46, (1H-Indol-6-yl)(2-methyl-3-phenyl-2,4,5,7-tetrahydro-6H-pyrazolo[3,4-c]pyridin-6-yl)methanone] the figure was 359 nM; with `Cn1nc2c(c1-c1ccccc1)CCN(C(=O)c1c(F)ccc3[nH]ccc13)C2` [Example 47, (5-Fluoro-1H-indol-4-yl)(2-methyl-3-phenyl-2,4,5,7-tetrahydro-6H-pyrazolo[3,4-c]pyridin-6-yl)methanone], 70.2 nM; with `Cn1nc2c(c1-c1ccccc1)CCN(C(=O)c1c[nH]c3c(Cl)cccc13)C2` [Example 48, (7-Chloro-1H-indol-3-yl)(2-methyl-3-phenyl-2,4,5,7-tetrahydro-6H-pyrazolo[3,4-c]pyridin-6-yl)methanone], 103 nM.
Regarding `Cn1nc2c(c1-c1ccccc1)CCN(C(=O)c1c[nH]c3cccc(Cl)c13)C2` [Example 49, (4-Chloro-1H-indol-3-yl)(2-methyl-3-phenyl-2,4,5,7-tetrahydro-6H-pyrazolo[3,4-c]pyridin-6-yl)methanone], the IC50 was found to be 461 nM.
`Cc1cccc2cc(C(=O)N3CCc4c(nn(C)c4-c4ccccc4)C3)[nH]c12` [Example 50, (7-Methyl-1H-indol-2-yl)(2-methyl-3-phenyl-2,4,5,7-tetrahydro-6H-pyrazolo[3,4-c]pyridin-6-yl)methanone] showed an IC50 of 2000 nM.
As for `Cn1nc2c(c1-c1ccccc1)CCN(C(=O)c1cccc3c1ccn3C)C2` [Example 51, (1-Methyl-1H-indol-4-yl)(2-methyl-3-phenyl-2,4,5,7-tetrahydro-6H-pyrazolo[3,4-c]pyridin-6-yl)methanone], the IC50 was 15.6 nM.
The compound `Cn1nc2c(c1-c1ccccc1)CCN(C(=O)c1cn(C)c3ccccc13)C2` [Example 52, (1-Methyl-1H-indol-3-yl)(2-methyl-3-phenyl-2,4,5,7-tetrahydro-6H-pyrazolo[3,4-c]pyridin-6-yl)methanone] came in with an IC50 of 138 nM.
`Cn1nc2c(c1-c1ccccc1)CCN(C(=O)c1noc3ccccc13)C2` [Example 53, Benzo[d]isoxazol-3-yl(2-methyl-3-phenyl-2,4,5,7-tetrahydro-6H-pyrazolo[3,4-c]pyridin-6-yl)methanone] yielded an IC50 of 32.2 nM.
With `Cn1nc2c(c1-c1ccccc1)CCN(C(=O)c1noc3cc(Cl)ccc13)C2` [Example 54, (6-Chlorobenzo[d]isoxazol-3-yl)(2-methyl-3-phenyl-2,4,5,7-tetrahydro-6H-pyrazolo[3,4-c]pyridin-6-yl)methanone] the figure was 1120 nM; with `Cn1nc2c(c1-c1ccccc1)CCN(C(=O)c1onc3ccccc13)C2` [Example 55, Benzo[c]isoxazol-3-yl(2-methyl-3-phenyl-2,4,5,7-tetrahydro-6H-pyrazolo[3,4-c]pyridin-6-yl)methanone], 226 nM.
Compound `Cn1nc2c(c1-c1ccccc1)CCN(C(=O)c1ccc3ncoc3c1)C2` [Example 56, Benzo[d]oxazol-6-yl(2-methyl-3-phenyl-2,4,5,7-tetrahydro-6H-pyrazolo[3,4-c]pyridin-6-yl)methanone] yielded an IC50 of 293 nM.
`Cn1nc2c(c1-c1ccccc1)CCN(C(=O)c1nc3ccccc3o1)C2` [Example 57, Benzo[d]oxazol-2-yl(2-methyl-3-phenyl-2,4,5,7-tetrahydro-6H-pyrazolo[3,4-c]pyridin-6-yl)methanone] came in with an IC50 of 1680 nM.
The compound `Cn1nc2c(c1-c1ccccc1)CCN(C(=O)c1ccc3ocnc3c1)C2` [Example 58, Benzo[d]oxazol-5-yl(2-methyl-3-phenyl-2,4,5,7-tetrahydro-6H-pyrazolo[3,4-c]pyridin-6-yl)methanone] displayed an IC50 of 4180 nM.
`Cn1nc2c(c1-c1ccccc1)CCN(C(=O)c1cccc3ncsc13)C2` [Example 59, Benzo[d]thiazol-7-yl(2-methyl-3-phenyl-2,4,5,7-tetrahydro-6H-pyrazolo[3,4-c]pyridin-6-yl)methanone] displayed an IC50 of 403 nM.
With `Cn1nc2c(c1-c1ccccc1)CCN(C(=O)c1ccc3scnc3c1)C2` [Example 60, Benzo[d]thiazol-5-yl(2-methyl-3-phenyl-2,4,5,7-tetrahydro-6H-pyrazolo[3,4-c]pyridin-6-yl)methanone], the IC50 is 550 nM.
The compound `Cn1nc2c(c1-c1ccccc1)CCN(C(=O)c1cccc3scnc13)C2` [Example 61, Benzo[d]thiazol-4-yl(2-methyl-3-phenyl-2,4,5,7-tetrahydro-6H-pyrazolo[3,4-c]pyridin-6-yl)methanone] showed an IC50 of 755 nM.
With `Cn1nc2c(c1-c1ccccc1)CCN(C(=O)c1nc3ccccc3s1)C2` [Example 62, Benzo[d]thiazol-2-yl(2-methyl-3-phenyl-2,4,5,7-tetrahydro-6H-pyrazolo[3,4-c]pyridin-6-yl)methanone], 1640 nM corresponded to half-maximal inhibition (IC50).
The figure for `Cn1nc2c(c1-c1ccccc1)CCN(C(=O)c1nsc3ccccc13)C2` [Example 63, Benzo[d]isothiazol-3-yl(2-methyl-3-phenyl-2,4,5,7-tetrahydro-6H-pyrazolo[3,4-c]pyridin-6-yl)methanone] is 49 nM; for `Cn1nc2c(c1-c1ccccc1)CCN(C(=O)c1ccc3[nH]ncc3c1)C2` [Example 64, (1H-Indazol-5-yl)(2-methyl-3-phenyl-2,4,5,7-tetrahydro-6H-pyrazolo[3,4-c]pyridin-6-yl)methanone] it is 56.2 nM.
